{"source": "patent US20130023002A1", "about": "“USE OF A SUBSTRATE IN A METHOD FOR MEASURING THE ACTIVITY OF AVAILABLE PROTEOLYTIC ENZYMES” (priority 2011, published 2013)", "key": {"[1]": {"system": "low-molecular-weight heparin, Fragmine® (anti-Xa activity, factor Xa)", "assay": "Evaluation of neutralization of low-molecular-weight heparin by enzyme substrates (anti-Xa activity)", "format": "biochemical", "text": "(§1) Before referring to the diagrams of the figures, the evaluation method used to quantify the neutralizing effect of the proteolytic enzyme substrates with respect to the glycosaminoglycans in a blood sample, and in particular a plasma, will be described. This evaluation method makes it possible to use both unfractionated heparins and low-molecular-weight heparins. In addition, the method endeavors to test the activity of factor Xa, located at the crossroads of two enzymatic cascades resulting in the formation of thrombin. Moreover, antithrombin, which is a natural inhibitor of thrombin generation, controls the reaction. As soon as it appears, factor Xa couples to its natural substrate, prothrombin, so as to form thrombin. The heparin contained in the sample forms, itself, a complex with antithrombin, which complex promotes the inhibition of factor Xa.\nThus, a chromogenic substrate based on para-nitroaniline, which factor Xa hydrolyzes, is used and the release of the para-nitroaniline, which can be measured optically, is then inversely proportional to the concentration of heparin present in the medium. A measurement of the anti-Xa activity is thus deduced therefrom.\nMore specifically, the percentage neutralization by the substrate is determined as being the ratio of the difference in the variation in anti-Xa activity in the medium containing the physiological saline and in the medium containing the substrate, between two heparin concentrations, and only the variation in activity in the medium containing the physiological saline, between the same two heparin concentrations, this ratio being multiplied by 100 in order to obtain the result as percentage neutralization.\nThe percentage neutralization can also be written more compactly: 100×(1−ΔA1/ΔA2), wherein ΔA1 corresponds to the variation in activity in the presence of substrate and ΔA2 to the variation in the presence of physiological saline. Thus, the parallel measurement of the variation in the presence of physiological saline makes it possible to establish the reference in each series of measurements.\nStill in this first part of the description, the abovementioned evaluation method was implemented with a low-molecular-weight heparin, Fragmine®.\nThe results of the percentage neutralization of this heparin for the three substrate variants described above, V(1), V(2) and V(3), have been reported in the table below."}, "[2]": {"system": "unfractionated calcium heparin Calciparine® (anti-Xa activity, factor Xa)", "assay": "Evaluation of neutralization of unfractionated heparin by enzyme substrates (anti-Xa activity, para-nitroaniline chromogenic substrate)", "format": "biochemical", "details": "FIG. 1, qualitative", "text": "as §1\nThus, a chromogenic substrate based on para-nitroaniline, which factor Xa hydrolyzes, is used and the release of the para-nitroaniline, which can be measured optically, is then inversely proportional to the concentration of heparin present in the medium. […]\nIn this first example, the heparin used is an unfractionated calcium heparin sold under the brand name: “Calciparine®”. According to the evaluation method, the anti-Xa activity is recorded and transferred onto the y-axis, as a function of the heparin concentration of the medium. […]"}}}
{"substance": "EtM-VR-Rhod110-Ac [V(1)]", "values": [{"measurement": "percentage neutralization", "setting": "[1]; Fragmine® 0.42 IU/ml", "value": 10, "unit": "%"}, {"measurement": "percentage neutralization", "setting": "[1]; Fragmine® 0.83 IU/ml", "value": 12, "unit": "%"}, {"measurement": "percentage neutralization", "setting": "[1]; Fragmine® 1.25 IU/ml", "value": 13, "unit": "%"}, {"measurement": "percentage neutralization", "setting": "[1]; Fragmine® 1.67 IU/ml", "value": 15, "unit": "%"}]}
{"substance": "Z-GGR-AMC", "values": [{"measurement": "effect of substrate with respect to heparin (curve compared with physiological saline)", "setting": "[2]", "value": "no notable effect with respect to heparin"}]}
